Assay results taken from patent US10815232B2, “Crystalline forms of viral-protein inhibitor drug VX-787, processes for preparation thereof and use thereof” (Crystal Pharmaceutical (Suzhou) Co., Ltd., priority 2017, dated 2020).
Converted amounts (≈) assume the structure as drawn. “Also recorded” adds a separate entry of the source. Structures can show the parent of a compound that is named as a salt.

How the values were obtained:
[1] = Dynamic solubility in FaSSIF and FeSSIF (Example 22); assay type: physicochemical
Description: The crystallite form CS3 of compound I of the present disclosure and free form Form A in CN105849100A are prepared into saturated solutions in pH-5.0 FeSSIF (Fed state simulated intestinal fluids) and pH=6.5 FaSSIF (Fasted state simulated intestinal fluids). The content of the sample in the saturated solution was determined by high performance liquid chromatography (HPLC) after equlibrated for 1, 4 and 24 hours.

[2] = Storage stability of crystalline forms (XRPD, HPLC); assay type: physicochemical; details: for Purity after storage: initial purity 99.24%; for purities after storage: all storage conditions tested for the form
Description: The hydrochloride Form CS1 prepared by the present disclosure was stored under 25° C./60% RH and 40° C./75% RH for 1 month. The crystalline forms were checked by XRPD before and after storing.
(§1) Three samples of hydrochloride Form CS3 prepared by the present disclosure were stored in open dishes under conditions of 25° C./60% RH, 40° C./75% RH for 1 month, and 60° C./75% relative humidity for 2 weeks. The crystalline forms and the chemical purities were checked by XRPD and HPLC before and after storing.
as §1, with “CS4” for “CS3”, “RH for two weeks,” for “RH,”, “HPLC respectively” for “HPLC”
[…] The crystalline forms and chemical purities were checked by HPLC and XRPD before and after storing.

[3] = Dynamic solubility in water (Example 11); assay type: physicochemical
Description: 12 mg of hydrochloride Form CS3 prepared in the present disclosure and the hydrochloride Form A in CN105849100A were accurately weighed and placed in vials, followed by adding 1.2 mL of water. The samples were rotated at 30 rpm on a rotator and sampled at 1 hour, 4 hours, and 24 hours. After centrifugation with 0.45 urn polytetrafluoroethylene (PTFE) filters, the filtrates were collected for HPLC analysis.

[4] = Dynamic solubility, saturated solution in pure water (Example 17); assay type: physicochemical; details: for Solubility: pure water
Description: Hydrochloride Form CS4 of the present disclosure and hydrochloride Form A in CN105849100A were prepared into saturated solution in pure water. The content of the sample in the saturated solution was determined by high performance liquid chromatography (HPLC) after 1, 4 and 24 hours. The solubility data of hydrochloride Form CS4 of the present disclosure and hydrochloride Form A in CN105849100A are shown in Table 12.

[5] = Mechanical stability (grinding, XRPD); assay type: physicochemical; details: ground in an agate mortar for about 2 minutes
Description: About 10 mg of hydrochloride Form CS1 of the present disclosure was taken and ground in an agate mortar for about 2 minutes.

[6] = Phase I studies; cited from earlier work
[7] = system: influenza virus infection; details: Completed Phase IIa studies; cited from earlier work
[8] = 25° C./60% RH, Five months, open dish
[9] = 40° C./75% RH, Five months, open dish

For `O=C(O)[C@H]1C2CCC(CC2)[C@@H]1Nc1nc(-c2c[nH]c3ncc(F)cc23)ncc1F` [Form CS3 of Compound I], the “Solubility FaSSIF” value ([1]; FaSSIF pH=6.5, 1 hour) was 110 µg/mL (≈ 275 µM), the “Solubility FaSSIF” value ([1]; FaSSIF pH=6.5, 4 hours) was 210 µg/mL (≈ 526 µM) and the “Solubility FaSSIF” value ([1]; FaSSIF pH=6.5, 24 hours) was 200 µg/mL (≈ 501 µM). The “solubility, times higher than Form A in CN105849100A” value ([1]; FaSSIF, 1, 4 and 24 hours) was 6-16 times, the “Solubility FeSSIF” value ([1]; FeSSIF pH 5.0, 1 hour) was 210 µg/mL (≈ 526 µM) and the “Solubility FeSSIF” value ([1]; FeSSIF pH 5.0, 4 hours) was 290 µg/mL (≈ 726 µM). For the same compound, the “Solubility FeSSIF” value ([1]; FeSSIF pH 5.0, 24 hours) was 250 µg/mL (≈ 626 µM), the “solubility, times higher than Form A in CN105849100A” value ([1]; FeSSIF, 1, 4 and 24 hours) was 4-11 times and the “Change of crystalline form” value [2, 8] was “Five months Unchanged”. For the same compound, the Purity after storage [2, 8] was 99.28%, the “time for which the form is stable” value ([2]; 25° C./60% RH, listed as Crystalline form CS3 of compound I) was “at least 5 months” and the “time for which the form is stable” value ([2]; 25° C./60% RH, listed as crystalline form CS3 of compound I) was “at least 5 months”. The “Change of crystalline form” value [2, 9] was “Five months Unchanged”, the Purity after storage [2, 9] was 99.26% and the “time for which the form is stable” value ([2]; 40° C./75% RH, listed as Crystalline form CS3 of compound I) was “at least 5 month”. The “time for which the form is stable” value ([2]; 40° C./75% RH, listed as crystalline form CS3 of compound I) was “at least 5 month”.
For `O=C(O)[C@H]1C2CCC(CC2)[C@@H]1Nc1nc(-c2c[nH]c3ncc(F)cc23)ncc1F` [Free Form Form A in CN105849100A, reference compound], the “Solubility FaSSIF” value ([1]; FaSSIF pH=6.5, 1 hour) was 7 µg/mL (≈ 17.5 µM), the “Solubility FaSSIF” value ([1]; FaSSIF pH=6.5, 4 hours) was 13 µg/mL (≈ 32.5 µM) and the “Solubility FaSSIF” value ([1]; FaSSIF pH=6.5, 24 hours) was 31 µg/mL (≈ 77.6 µM). The “Solubility FeSSIF” value ([1]; FeSSIF pH 5.0, 1 hour) was 18 µg/mL (≈ 45.1 µM), the “Solubility FeSSIF” value ([1]; FeSSIF pH 5.0, 4 hours) was 30 µg/mL (≈ 75.1 µM) and the “Solubility FeSSIF” value ([1]; FeSSIF pH 5.0, 24 hours) was 57 µg/mL (≈ 143 µM).
Work on `O=C(O)[C@H]1C2CCC(CC2)[C@@H]1Nc1nc(-c2c[nH]c3ncc(F)cc23)ncc1F` [Hydrochloride Form A in CN105849100A, reference compound] yielded a Solubility ([3]; 1 hour) of 0.3 µg/mL, a Solubility ([3]; 4 hours) of 0.9 µg/mL and a Solubility ([3]; 24 hours) of 2.5 µg/mL. For the same compound, the Solubility ([4]; 1 hour) was 0.3 µg/mL, the Solubility ([4]; 4 hours) was 0.9 µg/mL and the Solubility ([4]; 24 hours) was 2.5 µg/mL.
For `O=C(O)[C@H]1C2CCC(CC2)[C@@H]1Nc1nc(-c2c[nH]c3ncc(F)cc23)ncc1F` [Hydrochloride Form CS1], the “time for which the form is stable” value ([2]; 25° C./60% RH) was “at least 1 months”, the “Change of crystalline form” value ([2]; 25° C./60% RH, One month) was “Unchanged” and the “time for which the form is stable” value ([2]; 25° C./60% RH, listed as hydrochloride Form CS1) was “at least 1 months”. The “time for which the form is stable” value ([2]; 40° C./75% RH) was “at least 1 month”, the “Change of crystalline form” value ([2]; 40° C./75% RH, One month) was “Unchanged” and the “time for which the form is stable” value ([2]; 40° C./75% RH, listed as hydrochloride Form CS1) was “at least 1 month”. The purities after storage [2] was “above 98%” and the “crystalline form change after grinding” value [5] was “no form change is observed; also recorded: No crystalline form change”.
For `O=C(O)[C@H]1C2CCC(CC2)[C@@H]1Nc1nc(-c2c[nH]c3ncc(F)cc23)ncc1F` [Hydrochloride Form CS3], the Solubility ([3]; 1 hour) was 2.5 µg/mL, the Solubility ([3]; 4 hours) was 46.0 µg/mL and the Solubility ([3]; 24 hours) was 15.0 µg/mL. The “solubility, times higher than hydrochloride Form A in CN105849100A” value ([3]; after 1, 4 and 24 hours) was 6-51 times, the “Change of crystalline form” value ([2]; 25° C./60% RH, Seven months, open dish) was “Unchanged” and the “time for which the form is stable” value ([2]; 25° C./60% RH, listed as hydrochloride Form CS3) was “at least 7 months”. The “time for which the form is stable” value ([2]; 40° C./75% RH, listed as hydrochloride Form CS3) was “at least 1 month”, the “time for which the form is stable” value ([2]; 60° C./75% RH) was “at least 2 weeks” and the “Change of crystalline form” value ([2]; 60° C./75% RH, Two weeks, open dish) was “Unchanged”. The purities after storage [2] was “above 98%”.
In the case of `O=C(O)[C@H]1C2CCC(CC2)[C@@H]1Nc1nc(-c2c[nH]c3ncc(F)cc23)ncc1F` [Hydrochloride Form CS4], the Solubility ([4]; 1 hour) is reported as 85 µg/mL, the Solubility ([4]; 4 hours) is reported as 75 µg/mL and the Solubility ([4]; 24 hours) is reported as 94 µg/mL. The “solubility, times higher than hydrochloride Form A of CN105849100A” value ([4]; water, after 1, 4 and 24 hours) was 38-283 times, the “Change of crystalline form” value ([2]; 25° C./60% RH, Two weeks, open dish) was “Unchanged” and the “time for which the form is stable” value ([2]; 25° C./60% RH, listed as hydrochloride Form CS4) was “at least 2 weeks”. For the same compound, the “time for which the form is stable” value ([2]; 40° C./75% RH, listed as hydrochloride Form CS4) was “at least 1 month” and the purities after storage [2] was “above 98%”.
For `O=C(O)[C@H]1C2CCC(CC2)[C@@H]1Nc1nc(-c2c[nH]c3ncc(F)cc23)ncc1F` [VX-787, (2S,3S)-3-((5-Huoro-2-(5-fluoro-1.171-pyrrolo[2,3-b]pyridin-3-yl)pyrimidin-4-yl)amino) bicyclo[2.2.2]octane-2-carboxylic acid], the tolerance [6] is given as “good tolerance” and the “virological and clinical evaluation of influenza virus infection” value [7] is given as “statistical significance”.
